From US20240050588A1, “PHARMACEUTICAL COMPOSITION CONTAINING PROPOFOL, A CYCLODEXTRIN OR A CYCLODEXTRIN DERIVATIVE AND A PHARMACEUTICALLY ACCEPTABLE SALT” (CENTRE HOSPITALIER UNIVERSITAIRE DE LILLE, priority 2020, published 2024)
“And” between values parts separate entries of the source, which are not always exact repeats. Equal entries are not always repeated.

Assay: Propofol phase-solubility tests with cyclodextrins according to the method of Higuchi and Connors
Conditions: 25 °C, water, thermodynamic from solid
Procedure: A large excess of propofol is added to 1.4 ml of the appropriate cyclodextrin solution. The resulting mixtures are vortexed for about 5 min and stirred at a temperature 25±0.5° C. for 24 hours. About 1 ml of the solution is transferred using a Pasteur pipette into an Eppendorf tube. Afterwards, these tubes are centrifuged for 30 min at 13,200 rpm. Afterwards, 40 μl of the aqueous phase are sampled and then diluted to 1/10 in ethanol and to 40/1,000 in a solution of acetonitrile and an ammonia buffer pH 9.2. Afterwards, these samples are filtered through a 0.2 μm filter and then put in vial before analysis by high-performance liquid chromatography with UV detection. The injection volume was 10 microliters (cf. injection loop). […] The stability constants Kc are estimated from the slope of the line of the phase-solubility diagram according to the following equation: Kc=slope/S0 (1−slope).
The stability constant Kc is calculated from the slope of the line of the phase-solubility diagram according to the following equation: Kc=slope/S0(1−slope).
The used 2-hydropropyl-β-cyclodextrin is still that one selected before (HPB-LB). […]
The results of the solubility tests have been analysed again more particularly with the complexation efficiency (CE), calculated using the equation: […]

With `CC(C)c1cccc(C(C)C)c1O` [propofol, 2,6-bis(propan-2-yl)phenol] the solubility at 24 h was 1070 µM and 190 µg/mL.
